Data set [1] is described as follows: Tumor cell line cytotoxicity of flavonoid dimers, LCC6. Conditions: human, LCC6 cells, IC50 of compound alone. It is filed as cell-based, human. The method, then:
(§1) (b) Tumor Cell Line Cytotoxicity. The tumor cytotoxicity assays of flavonoid dimers were performed against LCC6, LCC6MDR and L929 cell lines. […] In brief, LCC6, LCC6MDR and L929 cells were seeded into 96-well flat bottom microtiter plate at 1×10^4 cells per well in a final volume of 100 μL media, respectively. A graded dose of flavonoid dimers was added into wells. The plate was incubated at 37° C. for 72 hrs at the atmosphere 5% CO2 in the air. The % of survivors was determined.

Data set [2] concerns the target Pgp (LCC6MDR cells) (Homo sapiens, UniProt P08183). Kind of data set: Cell proliferation assay: Pgp-modulating activity, reversal of anticancer drug resistance in LCC6MDR cells. To be noted: for RF (Relative Fold), cpd at 0.5 μM: RF = (IC50 without modulator)/(IC50 with 0.5 μM modulator); for RF (Relative Fold), cpd at 0.5 μM / RF (Relative Fold), cpd at 1 μM: paclitaxel; for RF (Relative Fold), cpd at 0.5 μM / EC50 / RF (Relative Fold), cpd at 1 μM: LCC6MDR; for EC50: EC50 of compounds for reversing anticancer drug resistance (nM), Paclitaxel; for Therapeutic index: IC50 of compounds for L929/EC50 of compounds for lowering paclitaxel drug resistance; for RF (Relative Fold), cpd at 1 μM: RF = (IC50 without modulator)/(IC50 with 1.0 μM modulator).
Procedure: Cell Proliferation Assay. 6,000 cells of LCC6 or LCC6MDR and anticancer drugs (paclitaxel, vinblastine, vincristine, doxorubicin and mitoxantrone) were mixed with or without modulators to a final volume of 200 μL in each well of 96-well plates. […] The plates were then incubated for 5 days at 37° C. […] IC50 values were calculated from the dose-response curves of MTS assays (Prism 4.0).

The nature of data set [3]: Tumor cell line cytotoxicity of flavonoid dimers, LCC6MDR. It is filed as cell-based, human. Conditions: human, LCC6MDR cells, IC50 of compound alone. The method, then: as §1
The nature of data set [4]: Cytotoxicity of flavonoid dimers, L929 mouse fibroblast. It is filed as cell-based. To be noted: mouse, L929 fibroblast cells, IC50 of compound alone, 72 hrs, mouse fibroblast. The method, then:
as §1

In data set [5] the test system is LdAG83 promastigotes (wild type). Kind of data set: In vitro anti-promastigote activity, LdAG83. It is filed as cell-based, Leishmania donovani. Conditions: Leishmania donovani, 72 h, read-out: Anti-promastigotes activity (IC50, μM) LdAG83. The method, then:
(§2) Cell Lines and Cell Culture. Promastigotes of Leishmania donovani (wild type LdAG83, pentamidine-resistant LdAG83-PentR50, and SSG-resistant Ld39) and Leishmania major [MHOM/IL/67/JERICHO II (Lm50122), from ATCC] were used in this study.
(§3) In Vitro Anti-Promastigote Activity. The viability of promastigotes was determined by the Cell Titer 96° Aqueous Assay (Promega) that employs a tetrazolium compound (MTS, 2-(4,5-Dimethylthiazol-2-yl-)-5-[3-(carboxymethoxy)phenyl]-2-(4-sulfophenyl)-2H-tetrazolium) and electron coupling reagent, phenazine methosulfate (PMS).^7 Promastigotes were seeded into 96-well flat bottom microtiter plate at 1×10^5 cells per well in a final volume of 100 μL medium and incubated with a series concentration of synthetic flavonoid dimers or known antileishmanials. The parasites were incubated at 27° C. for 72 hrs. Fresh solution of 2 mg/mL MTS and 0.92 mg/mL PMS were prepared in a ratio of 20:1 (MTS:PMS). After 72 hrs incubation, 10 μL of MTS:PMS mixture was added into each well of microtiter plate. The plate was then incubated at 27° C. for 4 hrs for color development. After 4 hrs incubation, the OD values were determined at 490 nm using automatic microtiter plate reader (Bio-Rad).

The test system of data set [6] is Ld39 promastigotes (SSG-resistant). Kind of data set: In vitro anti-promastigote activity, Ld39. It is filed as cell-based, Leishmania donovani. To be noted: Leishmania donovani, 72 h, read-out: Anti-promastigotes activity (IC50, μM) Ld39. How it is done:
as §2, §3

The subject of data set [7] is Raw264.7 cells. In words: Cytotoxicity, mouse macrophage Raw264.7. To be noted: Mus musculus, RAW264.7, 72 h. Type of data set: cell-based. How it is done: (a) Mouse Macrophage Raw 264.7 and Primary Mouse PEM Cells. The cytotoxicity assay of reference antileishmanial compounds and the compounds of this invention was performed against mouse macrophage cell line, Raw 264.7 and primary mouse PEM cells in order to calculate the therapeutic index (IC50 value for cytotoxicity of the compounds divided by IC50 value for antileishmanial activity of the compounds). The cells were grown in supplemented DMEM media in an atmosphere of 95% air with 5% CO2 at 37° C. In brief, Raw264.7 cells and PEM cells were seeded into 96-well flat bottom microtiter plate at 1×10^4cells and 2×10^4 cells per well in a final volume of 100 μL media, respectively. A graded dose of flavonoid dimers or antileishmanials was added into wells. The plate was incubated at 37° C. for 72 hrs at the atmosphere 5% CO2 in the air. The % of survivors was determined.

Sequence of Pgp (LCC6MDR cells) (P08183 whole entry): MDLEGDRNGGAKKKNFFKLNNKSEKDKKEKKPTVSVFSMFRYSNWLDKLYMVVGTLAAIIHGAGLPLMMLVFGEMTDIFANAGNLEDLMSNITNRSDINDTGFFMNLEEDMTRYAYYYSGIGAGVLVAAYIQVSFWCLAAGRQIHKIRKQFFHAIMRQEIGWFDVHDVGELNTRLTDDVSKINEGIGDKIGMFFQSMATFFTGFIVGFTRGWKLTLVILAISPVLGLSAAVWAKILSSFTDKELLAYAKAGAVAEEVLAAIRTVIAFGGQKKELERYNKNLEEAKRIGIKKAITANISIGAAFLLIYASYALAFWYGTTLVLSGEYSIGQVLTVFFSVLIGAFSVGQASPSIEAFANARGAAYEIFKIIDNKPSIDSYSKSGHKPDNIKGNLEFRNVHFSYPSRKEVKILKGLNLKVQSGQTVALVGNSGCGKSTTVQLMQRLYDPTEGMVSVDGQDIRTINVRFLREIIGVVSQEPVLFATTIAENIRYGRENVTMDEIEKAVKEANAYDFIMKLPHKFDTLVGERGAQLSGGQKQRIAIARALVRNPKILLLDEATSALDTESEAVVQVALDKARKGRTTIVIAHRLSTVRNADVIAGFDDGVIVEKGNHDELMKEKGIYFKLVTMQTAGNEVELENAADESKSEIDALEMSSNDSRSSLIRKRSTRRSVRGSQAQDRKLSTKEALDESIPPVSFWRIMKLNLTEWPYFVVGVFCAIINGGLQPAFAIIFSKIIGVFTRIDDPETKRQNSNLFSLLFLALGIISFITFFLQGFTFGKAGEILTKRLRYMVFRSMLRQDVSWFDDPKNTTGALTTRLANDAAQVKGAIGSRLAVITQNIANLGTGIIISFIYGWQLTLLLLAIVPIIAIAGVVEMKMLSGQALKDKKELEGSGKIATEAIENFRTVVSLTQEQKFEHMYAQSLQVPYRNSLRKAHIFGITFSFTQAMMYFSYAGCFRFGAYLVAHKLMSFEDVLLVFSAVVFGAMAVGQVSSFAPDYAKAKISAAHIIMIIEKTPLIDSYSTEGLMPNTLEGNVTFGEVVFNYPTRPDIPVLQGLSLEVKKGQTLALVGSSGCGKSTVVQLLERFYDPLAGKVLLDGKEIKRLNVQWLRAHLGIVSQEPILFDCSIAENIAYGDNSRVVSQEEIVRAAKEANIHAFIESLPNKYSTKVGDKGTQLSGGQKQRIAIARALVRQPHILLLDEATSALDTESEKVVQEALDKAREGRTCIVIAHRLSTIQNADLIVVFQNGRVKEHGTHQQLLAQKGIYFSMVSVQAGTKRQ

The compound `CN(C)c1cccc2c(S(=O)(=O)N(CCOCCOc3ccc(-c4cc(=O)c5ccccc5o4)cc3)CCOCCOc3ccc(-c4cc(=O)c5ccccc5o4)cc3)cccc12` [Compound 25b, 1,13-Bis[4′-(4H-chromen-4-on-2-yl)phenyl]-7-(dansyl)-1,4,10,13-tetraoxa-7-azamidecane] showed a melting point of 72 to 74 °C. In addition, in data set [1], the half-maximal inhibitory concentration (IC50) at 72 h is above 100 µM. Further, the “RF (Relative Fold), cpd at 0.5 μM” value in data set [2] is on record as “(1.4)”. The compound also showed an IC50 at 72 h in data set [3] above 100 µM.
Regarding `CS(=O)(=O)N(CCOCCOc1ccc(-c2cc(=O)c3ccccc3o2)cc1)CCOCCOc1ccc(-c2cc(=O)c3ccccc3o2)cc1` [Compound 24, 1,13-Bis[4′-(4H-chromen-4-on-2-yl)phenyl]-N-(methanesulfonyl)-1,4,10,13-tetraoxa-7-azamidecane], the figures for the IC50 at 72 h in data set [4], in data set [1] and in data set [3] were 13.4 ± 3.9 µM, 27.5 ± 8.4 µM and 42.6 ± 5.4 µM, respectively. For the same compound, the IC50 in data set [5] came to 0.5 µM; in data set [6], 1.5 µM; in data set [7], 96 ± 4 µM. For the same compound, the “RF (Relative Fold), cpd at 0.5 μM” value in data set [2] is “(12.8)”.
As for `O=c1cc(-c2ccc(OCCOCCN(CCCc3ccccc3)CCOCCOc3ccc(-c4cc(=O)c5ccccc5o4)cc3)cc2)oc2ccccc12` [Compound 26, 1,13-Bis[4′-(4H-chromen-4-on-2-yl)phenyl]-N-(3-phenylpropyl)-1,4,10,13-tetraoxa-7-azamidecane], the IC50 at 72 h is 9.5 µM in data set [4], above 100 µM in data set [1] and above 100 µM in data set [3]. Also, the IC50 in data set [5] amounted to 8.9 µM; in data set [6] it was 18.4 µM; in data set [7] it was 85 µM. The EC50 in data set [2] stood at 250 nM. In addition, in data set [2], the Therapeutic index is 38.0. Also, the “RF (Relative Fold), cpd at 0.5 μM” value in data set [2] is reported as “(12.5)”.
As to `O=c1cc(-c2ccc(OCCOCCN(CCOCCOc3ccc(-c4cc(=O)c5ccccc5o4)cc3)Cc3ccccc3Cl)cc2)oc2ccccc12` [Compound 50, 1,13-Bis[4′-(4H-chromen-4-on-2-yl)phenyl]-7-(2-chlorobenzyl)-1,4,10,13-tetraoxa-7-azamidecane], the IC50 at 72 h in data set [4], in data set [1] and in data set [3] was above 100 µM each time. The “RF (Relative Fold), cpd at 0.5 μM” value in data set [2] is listed as “(11.9)”. In data set [2], the “RF (Relative Fold), cpd at 1 μM” value was “(95.7)”.
Consider `O=c1cc(-c2ccc(OCCOCCNCCOCCOc3ccc(-c4cc(=O)c5cc(F)ccc5o4)cc3)cc2)oc2ccc(F)cc12` [Compound 12f, 1,13-Bis[4′-((6-fluoro)-4H-chromen-4-on-2-yl)phenyl]-1,4,10,13-tetraoxa-7-azamidecane], for which the IC50 at 72 h is 5.7 ± 0.4 µM in data set [4], 5.3 ± 1 µM in data set [1] and 3.3 ± 0.5 µM in data set [3]. Moreover, the “RF (Relative Fold), cpd at 0.5 μM” value in data set [2] was “(72.9)”. In addition, the “RF (Relative Fold), cpd at 1 μM” value in data set [2] is “(109.4)”.
In turn, `CC(C)(C)OC(=O)Nc1ccc(CN(CCOCCOc2ccc(-c3cc(=O)c4ccccc4o3)cc2)CCOCCOc2ccc(-c3cc(=O)c4ccccc4o3)cc2)cc1` [Compound 54, 1,13-Bis[4′-(4H-chromen-4-on-2-yl)phenyl]-7-(4-tert-butyloxycarbonylanimobenzyl)-1,4,10,13-tetraoxa-7-azamidecane] registered an IC50 at 72 h in data set [4] above 50 µM. Further, in data set [1], the IC50 at 72 h was above 50 µM. In addition, in data set [2], the EC50 is 188 nM; the Therapeutic index is 266.0; the “RF (Relative Fold), cpd at 0.5 μM” value is “(45.0)”; the “RF (Relative Fold), cpd at 1 μM” value is “(95.7)”. In data set [3], this compound had an IC50 at 72 h above 50 µM.
As to `Cc1ccc2oc(-c3ccc(OCCOCCNCCOCCOc4ccc(-c5cc(=O)c6cc(C)ccc6o5)cc4)cc3)cc(=O)c2c1` [Compound 12c, 1,13-Bis[4′-((6-methyl)-4H-chromen-4-on-2-yl)phenyl]-1,4,10,13-tetraoxa-7-azamidecane], the half-maximal inhibitory concentration (IC50) at 72 h in data set [4] is 6 ± 0.6 µM; in data set [1], 7.5 ± 0.9 µM; in data set [3], 7 ± 1.4 µM. For the same compound, in data set [2], the “RF (Relative Fold), cpd at 0.5 μM” value is “(13.9)”.
For `O=c1cc(-c2ccc(OCCOCCN(CCOCCOc3ccc(-c4cc(=O)c5ccccc5o4)cc3)Cc3cccnc3)cc2)oc2ccccc12` [Compound 64a, 1,13-Bis[4′-(4H-chromen-4-on-2-yl)phenyl]-7-(3-pyridylmethyl)-1,4,10,13-tetraoxa-7-azamidecane], the IC50 at 72 h came out at 2.3 ± 0.2 µM in data set [4], 5.7 ± 1.4 µM in data set [1] and 4.7 ± 0.2 µM in data set [3]. The “RF (Relative Fold), cpd at 0.5 μM” value in data set [2] is on record as “(8.5)”. Further, in data set [2], the “RF (Relative Fold), cpd at 1 μM” value is “(46.4)”.
The like results for `O=c1cc(-c2ccc(OCCOCCN(CCOCCOc3ccc(-c4cc(=O)c5ccccc5o4)cc3)Cc3ccnc(Br)c3)cc2)oc2ccccc12` [Compound 64b, 1,13-Bis[4′-(4H-chromen-4-on-2-yl)phenyl]-7-(4-(2-bromopyridyl)methyl)-1,4,10,13-tetraoxa-7-azamidecane] were, in that order, above 100 µM, above 100 µM, above 100 µM, “(8.4)” and “(76.6)”.
For `N#Cc1ccc(CN(CCOCCOc2ccc(-c3cc(=O)c4ccccc4o3)cc2)CCOCCOc2ccc(-c3cc(=O)c4ccccc4o3)cc2)cc1` [Compound 51, 1,13-Bis[4′-(4H-chromen-4-on-2-yl)phenyl]-7-(4-cyanobenzyl)-1,4,10,13-tetraoxa-7-azamidecane] the same measures were 25.2 ± 12.4 µM, above 100 µM, above 100 µM, “(2.6)” and “(5.9)”.
In turn, `O=c1cc(-c2ccc(OCCOCCN(CCOCCOc3ccc(-c4cc(=O)c5ccccc5o4)cc3)CC3CCCCC3)cc2)oc2ccccc12` [Compound 62, 1,13-Bis[4′-(4H-chromen-4-on-2-yl)phenyl]-7-(cyclohexanylmethyl)-1,4,10,13-tetraoxa-7-azamidecane] registered an IC50 at 72 h in data set [4] of 18.9 ± 2.3 µM. This compound also returned an IC50 at 72 h in data set [1] of 10 ± 4.7 µM. Moreover, in data set [2], the EC50 turned out to be 132 ± 7 nM; the Therapeutic index is recorded as 143.2; the “RF (Relative Fold), cpd at 0.5 μM” value was “(56.7)”; the “RF (Relative Fold), cpd at 1 μM” value is reported as “(117.8)”. Also, in data set [3], half-maximal inhibition (IC50 at 72 h) was put at 7.9 ± 2.7 µM.
In the case of `Cc1cccc(CN(CCOCCOc2ccc(-c3cc(=O)c4ccccc4o3)cc2)CCOCCOc2ccc(-c3cc(=O)c4ccccc4o3)cc2)c1` [Compound 45, 1,13-Bis[4′-(4H-chromen-4-on-2-yl)phenyl]-7-(3-methylbenzyl)-1,4,10,13-tetraoxa-7-azamidecane], the IC50 at 72 h is 55 ± 4.4 µM in data set [4], 57.7 ± 5.9 µM in data set [1] and above 66 µM in data set [3]. In addition, the “RF (Relative Fold), cpd at 0.5 μM” value in data set [2] is “(32.6)”. Moreover, in data set [2], the “RF (Relative Fold), cpd at 1 μM” value is recorded as “(102.1)”.

As usually defined, the melting point is the temperature of the solid-liquid transition. Broadly, the IC50 is the concentration that gives 50% inhibition. By EC50 is commonly meant the midpoint of the concentration-response curve.

These data come from patent US8980848B2, “Flavonoid dimers and their use” (The Hong Kong Polytechnic University, priority 2010, dated 2015).
